From EP4635500A1, “THERAPEUTIC AGENT FOR BACTERIAL INFECTION” (Sumitomo Pharma Co., Ltd., priority 2022, dated 2024)
In brackets after ≈: the same amount, converted by molar mass. Read-outs that look alike come from different tables or passages of the source.

What was measured:
[1] = test system: P. aeruginosa; experiment: MIC, broth microdilution, CDC/FDA Antibiotic Resistance Isolate Bank (Example 7, Tables 10, 15); type: cell-based; details: for MIC: read-out: MIC
[2] = test system: 53 CRE and CPE strains; experiment: MICrange, MIC50, MIC80, MIC90 for 53 bacterial isolates (Example 5, Table 5); type: cell-based
[3] = Pseudomonas aeruginosa, 96 strains of P. aeruginosa

C[C@@H](O)[C@H]1C(=O)N2C(C(=O)O)=C(S[C@@H]3CN[C@H](C(=O)N(C)C)C3)[C@H](C)[C@H]12 [MEPM, meropenem]
MIC against 96 strains of P. aeruginosa MIC50 ([1]; 96 strains of P. aeruginosa, β-lactamase inhibitor µg/mL in parentheses): 16 µg(mL) | MIC ([1]; Pseudomonas aeruginosa, KUB No. 57 (continued 90 in the 40th table r2), AR Bank #44 (continued 5), no carbapenemase gene): 64 µg/mL (≈ 167 µM) | MIC ([1]; Pseudomonas aeruginosa, KUB No. 5587, AR Bank #90, KPC-5): 32 µg/mL (≈ 83.4 µM) | MIC ([1]; Pseudomonas aeruginosa, KUB No. 5591, AR Bank #94, no carbapenemase gene): 16 µg/mL (≈ 41.7 µM) | MIC ([1]; Pseudomonas aeruginosa, KUB No. 5592, AR Bank #95, no carbapenemase gene): 8 µg/mL (≈ 20.9 µM) | MIC ([1]; Pseudomonas aeruginosa, KUB No. 5607, AR Bank #110, VIM-2): 64 µg/mL (≈ 167 µM) | MIC ([1]; Pseudomonas aeruginosa, KUB No. 5608, AR Bank #111, VIM-2): 32 µg/mL (≈ 83.4 µM) | MIC ([1]; Pseudomonas aeruginosa, KUB No. 5662, AR Bank #229, no carbapenemase gene): 32 µg/mL (≈ 83.4 µM) | MIC ([1]; Pseudomonas aeruginosa, KUB No. 5663, AR Bank #230, VIM-2): 64 µg/mL (≈ 167 µM) | MIC ([1]; Pseudomonas aeruginosa, KUB No. 5666, AR Bank #233, no carbapenemase gene): 16 µg/mL (≈ 41.7 µM) | MIC ([1]; Pseudomonas aeruginosa, KUB No. 5667, AR Bank #234, no carbapenemase gene): 2 µg/mL (≈ 5.22 µM) | MIC ([1]; Pseudomonas aeruginosa, KUB No. 5668, AR Bank #235, no carbapenemase gene): 16 µg/mL (≈ 41.7 µM) | MIC ([1]; Pseudomonas aeruginosa, KUB No. 5669, AR Bank #236, no carbapenemase gene): 2 µg/mL (≈ 5.22 µM) | MIC ([1]; Pseudomonas aeruginosa, KUB No. 5670, AR Bank #237, no carbapenemase gene): 2 µg/mL (≈ 5.22 µM) | MIC ([1]; Pseudomonas aeruginosa, KUB No. 5671, AR Bank #238, no carbapenemase gene): ≤ 0.25 µg/mL | MIC ([1]; Pseudomonas aeruginosa, KUB No. 5672, AR Bank #239, GES-1, VIM-11): 64 µg/mL (≈ 167 µM) | MIC ([1]; Pseudomonas aeruginosa, KUB No. 5676, AR Bank #243, VIM-2): 8 µg/mL (≈ 20.9 µM) | MIC ([1]; Pseudomonas aeruginosa, KUB No. 5677, AR Bank #244, no carbapenemase gene): 16 µg/mL (≈ 41.7 µM) | MIC ([1]; Pseudomonas aeruginosa, KUB No. 5678, AR Bank #245, VIM-2): 8 µg/mL (≈ 20.9 µM) | MIC ([1]; Pseudomonas aeruginosa, KUB No. 5684, AR Bank #251, no carbapenemase gene): 1 µg/mL (≈ 2.61 µM) | MIC ([1]; Pseudomonas aeruginosa, KUB No. 5685, AR Bank #252, no carbapenemase gene): 2 µg/mL (≈ 5.22 µM) | MIC ([1]; Pseudomonas aeruginosa, KUB No. 5686, AR Bank #253, no carbapenemase gene): 0.5 µg/mL (≈ 1.3 µM) | MIC ([1]; Pseudomonas aeruginosa, KUB No. 5687, AR Bank #254, VIM-2): 64 µg/mL (≈ 167 µM) | MIC ([1]; Pseudomonas aeruginosa, KUB No. 5689, AR Bank #256, no carbapenemase gene): 2 µg/mL (≈ 5.22 µM) | MIC ([1]; Pseudomonas aeruginosa, KUB No. 5691, AR Bank #258, no carbapenemase gene): 2 µg/mL (≈ 5.22 µM) | MIC ([1]; Pseudomonas aeruginosa, KUB No. 5692, AR Bank #259, no carbapenemase gene): 0.5 µg/mL (≈ 1.3 µM) | MIC ([1]; Pseudomonas aeruginosa, KUB No. 5694, AR Bank #261, no carbapenemase gene): 0.5 µg/mL (≈ 1.3 µM) | MIC ([1]; Pseudomonas aeruginosa, KUB No. 5695, AR Bank #262, no carbapenemase gene): 0.5 µg/mL (≈ 1.3 µM) | MIC ([1]; Pseudomonas aeruginosa, KUB No. 5696, AR Bank #263, no carbapenemase gene): ≤ 0.25 µg/mL | MIC ([1]; Pseudomonas aeruginosa, KUB No. 5697, AR Bank #264, no carbapenemase gene): 2 µg/mL (≈ 5.22 µM) | MIC ([1]; Pseudomonas aeruginosa, KUB No. 5698, AR Bank #265, no carbapenemase gene): 8 µg/mL (≈ 20.9 µM) | MIC ([1]; Pseudomonas aeruginosa, KUB No. 5699, AR Bank #266, no carbapenemase gene): 8 µg/mL (≈ 20.9 µM) | MIC ([1]; Pseudomonas aeruginosa, KUB No. 5700, AR Bank #267, no carbapenemase gene): 2 µg/mL (≈ 5.22 µM) | MIC ([1]; Pseudomonas aeruginosa, KUB No. 5701, AR Bank #268, no carbapenemase gene): 16 µg/mL (≈ 41.7 µM) | MIC ([1]; Pseudomonas aeruginosa, KUB No. 5702, AR Bank #269, no carbapenemase gene): 8 µg/mL (≈ 20.9 µM) | MIC ([1]; Pseudomonas aeruginosa, KUB No. 5703, AR Bank #270, no carbapenemase gene): 2 µg/mL (≈ 5.22 µM) | MIC ([1]; Pseudomonas aeruginosa, KUB No. 5704, AR Bank #271, no carbapenemase gene): 8 µg/mL (≈ 20.9 µM) | MIC ([1]; Pseudomonas aeruginosa, KUB No. 5705, AR Bank #272, no carbapenemase gene): 2 µg/mL (≈ 5.22 µM) | MIC ([1]; Pseudomonas aeruginosa, KUB No. 5747, AR Bank #351, no carbapenemase gene): 16 µg/mL (≈ 41.7 µM) | MIC ([1]; Pseudomonas aeruginosa, KUB No. 5749, AR Bank #353, GES-1): 16 µg/mL (≈ 41.7 µM) | MIC ([1]; Pseudomonas aeruginosa, KUB No. 5751, AR Bank #355, no carbapenemase gene): 8 µg/mL (≈ 20.9 µM) | MIC ([1]; Pseudomonas aeruginosa, KUB No. 5752, AR Bank #356, KPC-2): 32 µg/mL (≈ 83.4 µM) | MIC ([1]; Pseudomonas aeruginosa, KUB No. 5754, AR Bank #358, no carbapenemase gene): 8 µg/mL (≈ 20.9 µM) | MIC ([1]; Pseudomonas aeruginosa, KUB No. 5755, AR Bank #359, no carbapenemase gene): 8 µg/mL (≈ 20.9 µM) | MIC ([1]; Pseudomonas aeruginosa, KUB No. 5756, AR Bank #360, no carbapenemase gene): 16 µg/mL (≈ 41.7 µM) | MIC ([1]; Pseudomonas aeruginosa, KUB No. 5785, AR Bank #439, IMP-18): 64 µg/mL (≈ 167 µM) | MIC ([1]; Pseudomonas aeruginosa, KUB No. 5786, AR Bank #440, no carbapenemase gene): 8 µg/mL (≈ 20.9 µM) | MIC ([1]; Pseudomonas aeruginosa, KUB No. 5787, AR Bank #441, KPC-2): 32 µg/mL (≈ 83.4 µM) | MIC ([1]; Pseudomonas aeruginosa, KUB No. 5788, AR Bank #443, no carbapenemase gene): 16 µg/mL (≈ 41.7 µM) | MIC ([1]; Pseudomonas aeruginosa, KUB No. 5791, AR Bank #447, no carbapenemase gene): 2 µg/mL (≈ 5.22 µM) | MIC ([1]; Pseudomonas aeruginosa, KUB No. 5793, AR Bank #449, no carbapenemase gene): 16 µg/mL (≈ 41.7 µM) | MIC ([1]; Pseudomonas aeruginosa, KUB No. 5798, AR Bank #455, no carbapenemase gene): 16 µg/mL (≈ 41.7 µM) | MIC ([1]; Pseudomonas aeruginosa, KUB No. 5799, AR Bank #456, no carbapenemase gene): 64 µg/mL (≈ 167 µM) | MIC ([1]; Pseudomonas aeruginosa, KUB No. 5801, AR Bank #458, no carbapenemase gene): 1 µg/mL (≈ 2.61 µM) | MIC ([1]; Pseudomonas aeruginosa, KUB No. 5802, AR Bank #459, no carbapenemase gene): 16 µg/mL (≈ 41.7 µM) | MIC ([1]; Pseudomonas aeruginosa, KUB No. 5804, AR Bank #862, no carbapenemase gene): 8 µg/mL (≈ 20.9 µM) | MIC ([1]; Pseudomonas aeruginosa, KUB No. 5806, AR Bank #864, no carbapenemase gene): 64 µg/mL (≈ 167 µM) | MIC ([1]; Pseudomonas aeruginosa, KUB No. 5813, AR Bank #508, no carbapenemase gene): 16 µg/mL (≈ 41.7 µM) | MIC ([1]; Pseudomonas aeruginosa, KUB No. 5815, AR Bank #510, no carbapenemase gene): 0.5 µg/mL (≈ 1.3 µM) | MIC ([1]; Pseudomonas aeruginosa, KUB No. 5817, AR Bank #512, no carbapenemase gene): 16 µg/mL (≈ 41.7 µM) | MIC ([1]; Pseudomonas aeruginosa, KUB No. 5818, AR Bank #513, no carbapenemase gene): 32 µg/mL (≈ 83.4 µM) | MIC ([1]; Pseudomonas aeruginosa, KUB No. 5820, AR Bank #515, no carbapenemase gene): 32 µg/mL (≈ 83.4 µM) | MIC ([1]; Pseudomonas aeruginosa, KUB No. 5821, AR Bank #516, KPC-2): 64 µg/mL (≈ 167 µM) | MIC ([1]; Pseudomonas aeruginosa, KUB No. 5831, AR Bank #526, no carbapenemase gene): 8 µg/mL (≈ 20.9 µM) | MIC ([1]; Pseudomonas aeruginosa, KUB No. 5832, AR Bank #527, no carbapenemase gene): 16 µg/mL (≈ 41.7 µM) | MIC ([1]; Pseudomonas aeruginosa, KUB No. 5833, AR Bank #528, no carbapenemase gene): 8 µg/mL (≈ 20.9 µM) | MIC ([1]; Pseudomonas aeruginosa, KUB No. 5834, AR Bank #529, no carbapenemase gene): 8 µg/mL (≈ 20.9 µM) | MIC50 [1, 3]: 16 µg/mL (≈ 41.7 µM) | MIC80 [1, 3]: 64 µg/mL (≈ 167 µM) | MIC50 ([2]; 53 CRE and CPE strains, read-out: MIC50): 4 µg/mL (≈ 10.4 µM) | MIC80 ([2]; 53 CRE and CPE strains, read-out: MIC80): 16 µg/mL (≈ 41.7 µM) | MIC90 ([2]; 53 CRE and CPE strains, read-out: MIC90): 64 µg/mL (≈ 167 µM) | MIC50 ([2]; 53 bacterial isolates): 4 µg/mL (≈ 10.4 µM) | MIC80 ([2]; 53 bacterial isolates): 16 µg/mL (≈ 41.7 µM) | MIC90 ([2]; 53 bacterial isolates): 64 µg/mL (≈ 167 µM) | MICrange ([2]; 53 bacterial isolates): 0.06 to 256 µg/mL
